This assay deals with HCV NS3-4A serine protease (full-length NS3-4A protein) (Hepatitis C virus genotype 1a (isolate 1) (HCV), UniProt P26664). As to the kind of experiment: HCV NS3-4A protease assay. The conditions noted are these: strain HCV-1, fluorogenic peptide substrate, read-out: Protease assay Ex. 12 IC50. The class given is biochemical, HCV genotype 1a. How it is done: The inhibitory activity of certain compounds of Table A against HCV NS3-4A serine protease is determined in a homogenous assay using the full-length NS3-4A protein (genotype 1a, strain HCV-1) and a commercially available internally-quenched fluorogenic peptide substrate as described by Taliani, M., et al. 1996 Anal. Biochem. 240:60-67, which is incorporated by reference in its entirety.
Chain of HCV NS3-4A serine protease (full-length NS3-4A protein) (P26664 1027-1657): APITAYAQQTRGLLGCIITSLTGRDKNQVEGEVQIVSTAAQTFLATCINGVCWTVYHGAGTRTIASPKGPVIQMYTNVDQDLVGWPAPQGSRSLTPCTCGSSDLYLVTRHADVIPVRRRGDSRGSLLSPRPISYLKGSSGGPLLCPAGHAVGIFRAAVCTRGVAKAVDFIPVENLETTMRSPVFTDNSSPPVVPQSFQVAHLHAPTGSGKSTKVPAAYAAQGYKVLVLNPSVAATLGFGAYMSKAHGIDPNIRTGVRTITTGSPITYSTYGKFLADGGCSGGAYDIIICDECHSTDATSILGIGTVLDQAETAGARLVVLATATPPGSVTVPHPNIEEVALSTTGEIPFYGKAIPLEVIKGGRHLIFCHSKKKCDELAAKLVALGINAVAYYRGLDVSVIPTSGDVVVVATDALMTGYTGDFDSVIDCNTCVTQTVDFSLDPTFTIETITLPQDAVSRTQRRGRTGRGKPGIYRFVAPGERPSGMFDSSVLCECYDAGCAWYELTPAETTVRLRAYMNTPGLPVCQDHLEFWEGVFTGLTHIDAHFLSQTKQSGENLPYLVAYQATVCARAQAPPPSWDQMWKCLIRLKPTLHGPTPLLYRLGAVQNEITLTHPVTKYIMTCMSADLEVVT
Chain of HCV NS3-4A serine protease (full-length NS3-4A protein) (P26664 1658-1711 partner): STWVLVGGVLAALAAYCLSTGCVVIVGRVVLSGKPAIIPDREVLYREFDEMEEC

On to `C=C[C@@H]1C[C@]1(NC(=O)[C@@H]1C[C@@]2(CN1C(=O)[C@@H](NC(=O)[C@@H](NC(=O)[C@@H]1CCCN1CC)C1(C)CCCCC1)C(C)(C)C)C(C)(C)C21CCC1)C(=O)NS(=O)(=O)N(CC)CC` [Compound 134, (5R,8S)-N-[(1R,2S)-1-{[(diethylamino)sulfonyl]carbamoyl}-2-vinylcyclopropyl]-7-[(2S)-2-{[(2S)-2-({[(2S)-1-ethylpyrrolidin-2-yl]carbonyl}amino)-2-(1-methylcyclohexyl)acetyl]amino}-3,3-dimethylbutanoyl]-10,10-dimethyl-7-azadispiro[3.0.4.1]decane-8-carboxamide], for which the half-inhibitory concentration (IC50) – broadly, the concentration needed to halve the response being measured – was 5 nM.

Regarding `C=C[C@@H]1C[C@]1(NC(=O)[C@@H]1C[C@@]2(CN1C(=O)[C@@H](NC(=O)[C@@H](NC(=O)[C@H]1CCCN1CC)C1CCCCC1)C(C)(C)C)C(C)(C)C21CCC1)C(=O)NS(=O)(=O)N1CCCC1` [Compound 38, (5R,8S)-7-[(2S)-2-{[(2S)-2-cyclohexyl-2-({[(2R)-1-ethylpyrrolidin-2-yl]carbonyl}amino)acetyl]amino}-3,3-dimethylbutanoyl]-10,10-dimethyl-N-{(1R,2S)-1-[(pyrrolidin-1-ylsulfonyl)carbamoyl]-2-vinylcyclopropyl}-7-azadispiro[3.0.4.1]decane-8-carboxamide], the half-maximal inhibitory concentration (IC50) stood at 3.5 nM.

Regarding `C=C[C@@H]1C[C@]1(NC(=O)[C@@H]1C[C@@]2(CN1C(=O)[C@@H](NC(=O)[C@@H](NC(=O)[C@@H]1CCCCN1CC)C1CCCCC1)C(C)(C)C)C(C)(C)C21CCC1)C(=O)NS(=O)(=O)N1CCCC1` [Compound 37, (5R,8S)-7-[(2S)-2-{[(2S)-2-cyclohexyl-2-({[(2S)-1-ethylpiperidin-2-yl]carbonyl}amino)acetyl]amino}-3,3-dimethylbutanoyl]-10,10-dimethyl-N-{(1R,2S)-1-[(pyrrolidin-1-ylsulfonyl)carbamoyl]-2-vinylcyclopropyl}-7-azadispiro[3.0.4.1]decane-8-carboxamide], the 50% inhibitory concentration (IC50) is 3.3 nM.

With `C=C[C@@H]1C[C@]1(NC(=O)[C@@H]1C[C@@]2(CN1C(=O)[C@@H](NC(=O)[C@@H](NC(=O)[C@@H]1CCCCN1CC(F)F)C1CCCCC1)C1CCOCC1)C(C)(C)C21CCC1)C(=O)NS(=O)(=O)N1CCCC1` [Compound 74, (5R,8S)-7-[(2S)-2-{[(2S)-2-cyclohexyl-2-({[(2S)-1-(2,2-difluoroethyl)piperidin-2-yl]carbonyl}amino)acetyl]amino}-2-(tetrahydro-2H-pyran-4-yl)acetyl]-10,10-dimethyl-N-{(1R,2S)-1-[(pyrrolidin-1-ylsulfonyl)carbamoyl]-2-vinylcyclopropyl}-7-azadispiro[3.0.4.1]decane-8-carboxamide], the IC50 was determined as 65 nM.

Turning to `C=C[C@@H]1C[C@]1(NC(=O)[C@@H]1C[C@@]2(CN1C(=O)[C@@H](NC(=O)[C@@H](NC(=O)[C@@H]1CCCCN1C(C)C)C1CCCCC1)C(C)(C)C)C(C)(C)C21CCC1)C(=O)NS(=O)(=O)N1CCCCC1` [Compound 113, (5R,8S)-7-[(2S)-2-{[(2S)-2-cyclohexyl-2-({[(2S)-1-isopropylpiperidin-2-yl]carbonyl}amino)acetyl]amino}-3,3-dimethylbutanoyl]-10,10-dimethyl-N-{(1R,2S)-1-[(piperidin-1-ylsulfonyl)carbamoyl]-2-vinylcyclopropyl}-7-azadispiro[3.0.4.1]decane-8-carboxamide], the IC50 came to 3.5 nM.

Regarding `C=C[C@@H]1C[C@]1(NC(=O)[C@@H]1C[C@@]2(CN1C(=O)[C@@H](NC(=O)[C@@H](NC(=O)c1cnccn1)C1CCCCC1)C1CCOCC1)C(C)(C)C21CCC1)C(=O)NS(=O)(=O)N1CCCC1` [Compound 42, (5R,8S)-7-[(2S)-2-({(2S)-2-cyclohexyl-2-[(pyrazin-2-ylcarbonyl)amino]acetyl}amino)-2-(tetrahydro-2H-pyran-4-yl)acetyl]-10,10-dimethyl-N-{(1R,2S)-1-[(pyrrolidin-1-ylsulfonyl)carbamoyl]-2-vinylcyclopropyl}-7-azadispiro[3.0.4.1]decane-8-carboxamide], the IC50 was 40 nM.

As for `C=C[C@@H]1C[C@]1(NC(=O)[C@@H]1C[C@@]2(CN1C(=O)[C@@H](NC(=O)[C@@H](NC(=O)C(C)(C)N1CCCC1)C1CCCCC1)C(C)(C)C)C(C)(C)C21CCC1)C(=O)NS(=O)(=O)N1CCCC1` [Compound 14, (5R,8S)-7-[(2S)-2-({(2S)-2-cyclohexyl-2-[(2-methyl-2-pyrrolidin-1-ylpropanoyl)amino]acetyl}amino)-3,3-dimethylbutanoyl]-10,10-dimethyl-N-{(1R,2S)-1-[(pyrrolidin-1-ylsulfonyl)carbamoyl]-2-vinylcyclopropyl}-7-azadispiro[3.0.4.1]decane-8-carboxamide], the IC50 came to 3 nM.

As for `C=C[C@@H]1C[C@]1(NC(=O)[C@@H]1C[C@@]2(CN1C(=O)[C@@H](NC(=O)[C@@H](NC(=O)[C@@H]1CCCCN1C(C)C)C1CCCCC1)C1(C)CCOCC1)C(C)(C)C21CCC1)C(=O)NS(=O)(=O)N(CC)CC` [Compound 150, (5R,8S)-7-[(2S)-2-{[(2S)-2-cyclohexyl-2-({[(2S)-1-isopropylpiperidin-2-yl]carbonyl}amino)acetyl]amino}-2-(4-methyltetrahydro-2H-pyran-4-yl)acetyl]-N-[(1R,2S)-1-{[(diethylamino)sulfonyl]carbamoyl}-2-vinylcyclopropyl]-10,10-dimethyl-7-azadispiro[3.0.4.1]decane-8-carboxamide], the IC50 turned out to be 2.4 nM.

Regarding `C=C[C@@H]1C[C@]1(NC(=O)C1C[C@@]2(CN1C(=O)[C@@H](NC(=O)C1CCCNC1=O)C(C)(C)C)C(C)(C)C21CCC1)C(=O)NS(=O)(=O)N1CCCC1` (stereo partly drawn) [Compound 78, (5R)-7-[(2S)-3,3-dimethyl-2-{[(2-oxopiperidin-3-yl)carbonyl]amino}butanoyl]-10,10-dimethyl-N-{(1R,2S)-1-[(pyrrolidin-1-ylsulfonyl)carbamoyl]-2-vinylcyclopropyl}-7-azadispiro[3.0.4.1]decane-8-carboxamide], the IC50 amounted to 650 nM.

On to `C=C[C@@H]1C[C@]1(NC(=O)[C@@H]1C[C@@]2(CN1C(=O)[C@@H](NC(=O)[C@@H](NC(=O)[C@@H]1CCCN1CC)C1CCCCC1)C(C)(C)C)C(C)(C)C21CCC1)C(=O)NS(=O)(=O)N(CC)CC` [Compound 63, (5R,8S)-7-[(2S)-2-{[(2S)-2-cyclohexyl-2-({[(2S)-1-ethylpyrrolidin-2-yl]carbonyl}amino)acetyl]amino}-3,3-dimethylbutanoyl]-N-[(1R,2S)-1-{[(diethylamino)sulfonyl]carbamoyl}-2-vinylcyclopropyl]-10,10-dimethyl-7-azadispiro[3.0.4.1]decane-8-carboxamide], for which the IC50 stood at 1.2 nM.

Consider `C=C[C@@H]1C[C@]1(NC(=O)C1C[C@@]2(CN1C(=O)[C@@H](NC(=O)c1cccc(C(=O)NC)c1)C(C)(C)C)C(C)(C)C21CCC1)C(=O)NS(=O)(=O)N1CCCC1` (stereo partly drawn) [Compound 88, N-[(1S)-1-{[(5R)-10,10-dimethyl-8-({(1R,2S)-1-[(pyrrolidin-1-ylsulfonyl)carbamoyl]-2-vinylcyclopropyl}carbamoyl)-7-azadispiro[3.0.4.1]dec-7-yl]carbonyl}-2,2-dimethylpropyl]-N′-methylisophthalamide], for which the IC50 was found to be 500 nM.

(Values after patent US8613914B2, “Peptidomimetic sulfamide compounds and antiviral uses thereof” (Novartis AG, priority 2009, dated 2013).)
